According to patent US20240327789A1, “HUMAN CEREBELLAR ORGANOIDS WITH BONA FIDE PURKINJE CELLS AND USES THEREOF” (University of Southern California, priority 2023, published 2024):

Test system: hCerOs
Test: Two-photon calcium imaging of intact hCerOs with bath application of drugs
Format: cell-based, human

For NC1=N[C@H](O)[C@H]2[C@H]3O[C@]4(O)O[C@@H]([C@@H](O)[C@@]2(N1)[C@@H]4O)[C@]3(O)CO [Tetrodotoxin], the “sensitivity of individual Ca2+ neuronal calcium signals” value was “sensitive”.
